Test results reported in patent publication US8993552B2, “Compositions and methods for treatment of leukemia” (The Regents of The University of Michigan, priority 2009, dated 2015).
“Also recorded” adds a separate entry of the source. Where two headings read alike, the source gives them in different places.

How the values were obtained:
MV4;11 cells (MLL-AF4) = assay: Annexin V/PI staining flow cytometry
menin-MLL interaction [1] = molecular target: T1, menin-MLL interaction (Homo sapiens (Human), UniProt O00255); assay: Fluorescence polarization (FP) competition assay with fluorescein-labeled MLL peptide; type: binding;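 also: Read-out is fluorescence anisotropy of fluorescein-labeled MLL peptide bound to menin, inhibitors displace the peptide and lower anisotropy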
THP-1 leukemia cells = assay: Differentiation of THP-1 cells, CD11b by flow cytometry; type: cell-based, human
From the text: Thienopyrimidine and benzodiazepine compounds induce differentiation of the MLL leukemia cells.

menin-MLL interaction [2] = molecular target: T1, menin-MLL interaction; assay: HTRF (TR-FRET) assay, His-tagged menin and biotinylated MLL peptide; type: binding; settings: Table 3
menin-MLL interaction [3] = molecular target: T1, menin-MLL interaction; settings: 50 μM and 25 μM compound, vs DMSO control
Hoxa9 promoter = assay: Luciferase reporter assay in HEK293 cells transfected with MLL-AF9
THP-1 cells (MLL-AF9) = assay: Annexin V/PI staining flow cytometry
[4] = system: human leukemia cell lines with MLL translocations (MV4;11, KOPN-8, THP-1, MonoMac6); assay: MTT viability assay in MLL leukemia cell lines; type: cell-based; settings: in words
Hep-G2 (liver) cell line = assay: MTT viability assay, liver cell line
HK-2 (kidney) cell line = assay: MTT viability assay, kidney cell line
[5] = system: Hoxa9 and Meis1 expression; assay: qRT-PCR of MLL downstream targets in THP-1 cells
[6] = system: mouse bone marrow transduced with E2A-HLF; assay: MTT viability assay, transduced mouse bone marrow (negative control); type: cell-based
[7] = system: mouse bone marrow transduced with MLL-AF9; assay: MTT viability assay, transduced mouse bone marrow; type: cell-based
From the text: (§1) Effects of thienopyrimidine compounds on mouse bone marrow transduced with MLL-AF9 and MLL-ENL.

[8] = system: mouse bone marrow transduced with MLL-ENL; assay: MTT viability assay, transduced mouse bone marrow; type: cell-based
From the text: as §1

[9] = system: non-MLL leukemia cell lines (Kasumi-1, ME-1); assay: MTT viability assay in non-MLL leukemia cell lines; type: cell-based, human; settings: Kasumi-1 (AML1-ETO), ME-1 (CBFβ-SMMHC)
[10] = system: human leukemia cell lines with MLL translocations (MV4;11, ML-2, KOPN-8, Karpas 45); assay: ATP-based luminescence cell viability assay in MLL leukemia cell lines; settings: range over MLL leukemia cell lines
[11] = Solubility (stated in words); type: physicochemical; settings: relative to Compound 1, in words

T1 sequence (O00255 whole entry): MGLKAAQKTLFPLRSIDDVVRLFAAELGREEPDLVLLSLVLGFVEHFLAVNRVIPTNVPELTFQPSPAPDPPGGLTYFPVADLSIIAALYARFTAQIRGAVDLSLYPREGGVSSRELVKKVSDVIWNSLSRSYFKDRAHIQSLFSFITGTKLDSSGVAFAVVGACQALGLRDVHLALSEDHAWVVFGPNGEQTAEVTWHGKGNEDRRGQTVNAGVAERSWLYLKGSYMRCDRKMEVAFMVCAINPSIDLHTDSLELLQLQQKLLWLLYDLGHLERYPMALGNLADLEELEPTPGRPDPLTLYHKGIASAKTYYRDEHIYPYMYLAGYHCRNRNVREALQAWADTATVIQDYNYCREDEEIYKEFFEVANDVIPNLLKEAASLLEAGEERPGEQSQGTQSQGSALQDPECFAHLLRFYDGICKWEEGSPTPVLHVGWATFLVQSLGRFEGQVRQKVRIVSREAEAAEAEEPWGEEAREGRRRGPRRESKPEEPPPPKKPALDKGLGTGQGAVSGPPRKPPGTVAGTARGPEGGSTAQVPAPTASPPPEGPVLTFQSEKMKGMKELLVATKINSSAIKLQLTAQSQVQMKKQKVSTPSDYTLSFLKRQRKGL

CC(=O)N1c2ccccc2NC2=C(C(=O)CC(c3ccc(C(C)(C)C)cc3)C2)C1c1cccnc1 (centres unmarked) [Compound 32]
apoptotic cells (MV4;11 cells (MLL-AF4); 25 μM): > 20%
dead cells (MV4;11 cells (MLL-AF4); 25 μM): > 20%
induction of apoptosis and cell death (MV4;11 cells (MLL-AF4); 25 μM and 50 μM, in words): substantial apoptosis and cell death
IC50 (menin-MLL interaction [1]; Table 3, NA = no activity, read-out: IC50 in FP assay with FLSN-MLL): 13 µM
IC50 (menin-MLL interaction [1]; re-tested by FP and HTRF, read-out: IC50 for inhibition of the menin-MLL interaction): 13 µM
expression of CD11b on the cell surface (THP-1 leukemia cells): increased expression of CD11b
IC50 (menin-MLL interaction [2]): 7 µM
inhibition of the menin-MLL interaction in cells (co-IP) (menin-MLL interaction [3]): effectively inhibit
transactivation of the Hoxa9 promoter (Hoxa9 promoter): effectively inhibit; also recorded: dose dependent inhibition
induction of apoptosis and cell death (THP-1 cells (MLL-AF9); 25 μM and 50 μM, in words): substantial apoptosis and cell death
apoptotic cells (THP-1 cells (MLL-AF9); 50 μM): about 20%
dead cells (THP-1 cells (MLL-AF9); 50 μM): > 40%
growth inhibition of MLL leukemia cells [4]: substantial growth inhibition; also recorded: strongly inhibited growth
toxicity in viability assay (Hep-G2 (liver) cell line): no signs of substantial toxicity
toxicity in viability assay (HK-2 (kidney) cell line): no signs of substantial toxicity

CCCc1cc2c(N3CCN(C4=NCC(C)(C)S4)CC3)ncnc2s1 [Compound 70]
expression of CD11b on the cell surface (THP-1 leukemia cells): increased expression of CD11b
expression level of Hoxa9 and Meis1 [5]: Downregulation
inhibition of cell growth [6]: no significant inhibition of cell growth
inhibition of cell growth [7]: substantial inhibition of cell growth
inhibition of cell growth [8]: substantial inhibition of cell growth
inhibition of the menin-MLL interaction in cells (co-IP) (menin-MLL interaction [3]): effectively inhibit
effect on growth of non-MLL leukemia cell lines [9]: no effect on the cell growth
growth inhibition of MLL leukemia cells [4]: Very effective growth inhibition

CCc1cc2c(N3CCN(c4nnc(CC)s4)CC3)ncnc2s1 [Compound 4]
GI50 [10]: 7 to 25 µM
solubility [11]: improved solubility
toxicity in viability assay (Hep-G2 (liver) cell line): no substantial signs of toxicity
toxicity in viability assay (Hep-G2 (liver) cell line; listed as Compounds 4): no signs of substantial toxicity
toxicity in viability assay (HK-2 (kidney) cell line): no substantial signs of toxicity
toxicity in viability assay (HK-2 (kidney) cell line; listed as Compounds 4): no signs of substantial toxicity
